Experimental data taken from ChEMBL document CHEMBL2429717 (J Med Chem, 2013).

Key:
[1] = tested on: Jurkat; experiment: Cytotoxicity against human Jurkat cells assessed as growth inhibition; type: functional, cell-based
[2] = Induction of interphase microtubule depolymerization in rat A10 cells; type: cell-based
[3] = target: Tubulin; experiment: Displacement of [3H]colchicine from tubulin (unknown origin); type: protein-complex assay, Homo sapiens
[4] = Induction of interphase microtubule depolymerization in rat A10 cells after 18 to 24 hrs by DAPI staining-based indirect immunofluorescence assay; type: cell-based
[5] = tested on: MDA-MB-435; experiment: Cytotoxicity against human MDA-MB-435 cells assessed as growth inhibition; type: functional, cell-based
[6] = tested on: MDA-MB-435; experiment: Cytotoxicity against human MDA-MB-435 cells assessed as growth inhibition after 72 hrs by SRB assay; type: functional, cell-based; conditions: MDA-MB-435, 72 h

Row | SMILES | EC50 [2] | pEC50 [2] | EC50 [4] | pEC50 [4] | IC50 ([5]; read-out: IC50) | IC50 ([5]; read-out: pIC50 (converted)) | further results
1 | O=C1/C(=C/c2cc(Cl)cc(Cl)c2)Cc2cc(O)c(O)cc21 | – | – | – | – | – | – | IC50 ([1]; read-out: IC50): > 50 µM; IC50 ([1]; read-out: pIC50 (converted)): 100 µM
2 | COc1cc2c(c(N)c1OC)C(=O)/C(=C/c1cc(C)c(O)c(C)c1)C2 | – | – | – | – | – | – | IC50 ([1]; read-out: IC50): 0.001 µM; IC50 ([1]; read-out: pIC50 (converted)): 0.001 µM
3 | COc1ccc([C@H]2[C@H](c3cc(OC)c(OC)c(OC)c3)C(C)=NN2C(C)=O)cc1O | 4.5 µM | 5.35 | – | – | – | – | –
4 | COc1ccc(-c2oc3c(OC)c(OC)c(OC)c(O)c3c(=O)c2OC)cc1O | – | – | – | – | – | – | Kd [3]: 0.13 µM
5 | COC(=O)c1[nH]c(Br)c(-c2ccc(OC)c(OC)c2)c1Br | – | – | 5 µM | 5.3 | – | – | –
6 | CCCOC(=O)c1[nH]c(Br)c(-c2ccc(OC)c(OC)c2)c1Br | – | – | 3.3 µM | 5.48 | – | – | –
7 | COc1ccc(-c2c(Br)[nH]c(C(=O)OC(C)C)c2Br)cc1OC | – | – | 3.6 µM | 5.44 | – | – | –
8 | COc1ccc(-c2c(Br)[nH]c(C(=O)OC(C)(C)C)c2Br)cc1OC | – | – | 25 µM | 4.6 | – | – | –
9 | CCCCOC(=O)c1[nH]c(Br)c(-c2ccc(OC)c(OC)c2)c1Br | – | – | 33 µM | 4.48 | – | – | –
10 | CCCCCCOC(=O)c1[nH]c(Br)c(-c2ccc(OC)c(OC)c2)c1Br | – | – | 14 µM | 4.85 | – | – | –
11 | COc1ccc(-c2c(Br)[nH]c(C(=O)OCc3ccccc3)c2Br)cc1OC | – | – | 100 µM | 4 | – | – | –
12 | COc1ccc(-c2c(Br)[nH]c(C(=O)OCCCN(C)C)c2Br)cc1OC | – | – | 50 µM | 4.3 | – | – | –
13 | COc1ccc(-c2c(Br)[nH]c(C(=O)OCCN(C)C)c2Br)cc1OC | – | – | 50 µM | 4.3 | – | – | –
14 | COc1ccc(-c2c(Br)[nH]c(C(=O)OCCCN(C)C)c2Br)cc1OC.Cl | – | – | 100 µM | 4 | – | – | –
15 | COc1ccc(-c2c(Br)[nH]c(C(=O)OCCN(C)C)c2Br)cc1OC.Cl | – | – | 100 µM | 4 | – | – | –
16 | COc1ccc(OC(=O)c2[nH]c(Br)c(-c3ccc(OC)c(OC)c3)c2Br)cc1 | – | – | 100 µM | 4 | – | – | –
17 | Cc1nc2c(c(N(C)c3ccccc3)n1)C[C@@H](C)C2 | 520 µM | 3.28 | – | – | 7.1 µM | 7.08 µM | –
18 | CCOC(=O)c1c(-c2ccc(OC)c(OC)c2)c(-c2ccc(OC)c(OC)c2)cn1CCc1ccc(OC)c(OC)c1 | 500 µM | 3.3 | – | – | 100 µM | 100 µM | –
19 | COc1ccc(N(C)c2nc(C)nc3cc[nH]c23)cc1 | – | – | 1.2 µM | 5.92 | – | – | IC50 ([6]; read-out: IC50): 0.097 µM; IC50 ([6]; read-out: pIC50 (converted)): 0.0955 µM
20 | COc1ccc(N(C)c2ncnc3cc[nH]c23)cc1 | – | – | 1.4 µM | 5.85 | – | – | IC50 ([6]; read-out: IC50): 0.193 µM; IC50 ([6]; read-out: pIC50 (converted)): 0.195 µM
21 | COc1ccc(N(C)c2nc(C)nc3cc(C)[nH]c23)cc1 | – | – | 0.22 µM | 6.66 | – | – | IC50 ([6]; read-out: IC50): 0.03 µM; IC50 ([6]; read-out: pIC50 (converted)): 0.0302 µM
22 | COc1ccc(N(C)c2nc(N)nc3cc(C)[nH]c23)cc1 | – | – | 8.4 µM | 5.08 | – | – | IC50 ([6]; read-out: IC50): 0.298 µM; IC50 ([6]; read-out: pIC50 (converted)): 0.295 µM
23 | COc1ccc2c(c1)CCCN2c1nc(C)nc2cc[nH]c12 | – | – | 0.23 µM | 6.64 | – | – | IC50 ([6]; read-out: IC50): 0.043 µM; IC50 ([6]; read-out: pIC50 (converted)): 0.0427 µM
24 | COc1cccc(N(C)c2nc(C)nc3c2C[C@H](C)C3)c1 | 1.6 µM | 5.8 | – | – | 0.095 µM | 0.0955 µM | –
25 | Cc1nc2c(c(N(C)c3ccccc3)n1)C[C@H](C)C2 | 43 µM | 4.37 | – | – | 1.67 µM | 1.66 µM | –
26 | COc1ccc(Nc2nc(C)nc3c2C[C@@H](C)C3)cc1 | 520 µM | 3.28 | – | – | 51 µM | 51.3 µM | –

Row | SMILES | EC50 [2] | pEC50 [2] | EC50 [4] | pEC50 [4] | IC50 ([5]; read-out: IC50) | IC50 ([5]; read-out: pIC50 (converted)) | further results
27 | COc1cccc(N(C)c2nc(C)nc3c2C[C@@H](C)C3)c1 | 6.9 µM | 5.16 | – | – | 0.402 µM | 0.398 µM | –
28 | CCOC(=O)c1[nH]c(Br)c(-c2cccc3ccccc23)c1Br | 7 µM | 5.15 | – | – | 3.2 µM | 3.24 µM | –
29 | CCOC(=O)c1[nH]c(Br)c(-c2c[nH]c3ccccc23)c1Br | 18 µM | 4.75 | – | – | 2 µM | 2 µM | –
30 | CCOC(=O)c1[nH]c(Br)c(-c2ccc(OC(F)(F)F)cc2)c1Br | 27 µM | 4.57 | – | – | 1.7 µM | 1.7 µM | –
31 | CCOC(=O)c1[nH]c(Br)c(-c2ccc(SC)cc2)c1Br | 19 µM | 4.73 | – | – | 0.626 µM | 0.631 µM | –
32 | CCOC(=O)c1[nH]c(Br)c(-c2ccc(Cl)c(Cl)c2)c1Br | 9.9 µM | 5 | – | – | 0.806 µM | 0.813 µM | –
33 | CCOC(=O)c1[nH]c(Br)c(-c2ccc(OC)c(F)c2)c1Br | 14 µM | 4.85 | – | – | 0.539 µM | 0.537 µM | –
34 | CCOC(=O)c1[nH]c(Br)c(-c2ccc3cc(OCC)ccc3c2)c1Br | 33 µM | 4.48 | – | – | 2 µM | 2 µM | –
35 | CCOC(=O)c1[nH]c(Br)c(-c2ccc3c(c2)OCO3)c1Br | 30 µM | 4.53 | – | – | 1.8 µM | 1.82 µM | –
36 | CCOC(=O)c1[nH]c(Br)c(-c2ccc3c(c2)OCCO3)c1Br | 21 µM | 4.68 | – | – | 4.4 µM | 4.37 µM | –
37 | CCOC(=O)c1[nH]c(Br)c(-c2cccc(OC)c2)c1Br | 2.4 µM | 5.62 | – | – | 0.633 µM | 0.631 µM | –
38 | CCOC(=O)c1cc(-c2ccc(OC)cc2)c(C(=O)c2ccc(OC)cc2)[nH]1 | 100 µM | 4 | – | – | 3 µM | 3.02 µM | –
39 | CCOC(=O)c1[nH]c(C(=O)c2ccc(OC)cc2)c(-c2ccc(OC)cc2)c1Br | 500 µM | 3.3 | – | – | 100 µM | 100 µM | –
40 | CCOC(=O)c1c[nH]c(C(=O)c2ccc(OC)cc2)c1-c1ccc(OC)cc1 | 500 µM | 3.3 | – | – | 100 µM | 100 µM | –
41 | CCOC(=O)c1[nH]c(Br)c(-c2ccc(Cl)cc2)c1Br | 83 µM | 4.08 | – | – | – | – | –
42 | CCOC(=O)c1[nH]c(Br)c(-c2ccc(OC)cc2)c1Br | 7 µM | 5.15 | – | – | 0.843 µM | 0.851 µM | –
43 | CCOC(=O)c1[nH]c(Br)c(-c2ccc(Br)cc2)c1Br | 94 µM | 4.03 | – | – | – | – | –
44 | CCOC(=O)c1[nH]c(C(=O)c2ccc(OC)cc2)c(-c2ccc(OC)cc2)c1-c1ccc(OC)cc1 | 500 µM | 3.3 | – | – | 100 µM | 100 µM | –
45 | CCOC(=O)c1[nH]c(Br)c(-c2ccccc2)c1Br | 167 µM | 3.78 | – | – | – | 10.2 µM | –
46 | COc1ccc(C(=O)c2[nH]c(C(=O)c3ccc(OC)cc3)c(-c3ccc(OC)cc3)c2-c2ccc(OC)cc2)cc1 | 500 µM | 3.3 | – | – | 100 µM | 100 µM | –
47 | CCOC(=O)c1[nH]c(Br)c(-c2ccc(C)cc2)c1Br | 75 µM | 4.12 | – | – | – | 2.24 µM | –
48 | CCOC(=O)c1[nH]c(Br)c(-c2cc(OC)c(OC)c(OC)c2)c1Br | 71 µM | 4.15 | – | – | – | – | –
49 | CCOC(=O)c1[nH]c(Br)c(-c2cc(OC)c(OC)cc2Br)c1Br | 14 µM | 4.85 | – | – | 2.6 µM | 2.63 µM | –
50 | CCOC(=O)c1[nH]cc(-c2ccc(OC)cc2)c1-c1ccc(OC)cc1 | 500 µM | 3.3 | – | – | – | – | –
51 | COc1ccc(-c2oc3cc(O)c(OC)cc3c(=O)c2OC)cc1O | – | – | – | – | – | – | Kd [3]: 6 µM
52 | O=c1c(O)c(-c2ccc(O)cc2O)oc2cc(O)cc(O)c12 [MORIN] | – | – | – | – | – | – | Kd [3]: > 100 µM; pKd [3]: 3.7
